According to US20040228804A1, “Nasal administration of xylitol to a non-human mammal” (priority 2003, published 2004):

Assays:
pathogenic bacteria = conditions: several pathogenic bacteria exposed to xylitol; cited from earlier work
shipping fever = assay: treating cattle with xylitol in solution to reduce or prevent shipping fever; format: in vivo; conditions: 1% xylitol in solution; lower limit of tested effectiveness
Text: (§1) Embodiments of the present invention are directed to treating cattle with xylitol in solution in order to reduce or prevent shipping fever, and/or ailments associated with close quartering of cattle. The solution may be a saline based solution for some embodiments, but the solution may also have just a water base. A maximum strength may be a saturated solution comprising approximately of 64 grams of xylitol per 100 cubic centimeters (cc's) of solution. The inventor has yet to determine a precise lower limit of xylitol that would be effective, but as little as 1% xylitol in solution has shown to be effective. It should be understood however, that a 1% xylitol in solution should not be construed as a lower limit of effectiveness; rather, this is only the lower limit of tested effectiveness. Smaller percentages of the xylitol in solution may likewise be effective, and thus their use would be within the scope and spirit of the invention.
The precise mode of application of the xylitol in solution may vary substantially. In at least some embodiments, nostrils of the cattle may be treated directly prior to close quartering, such as shipping. In particular, in these embodiments the xylitol in solution be applied to each nostril of each animal in the form of a mist (nebulized), which application preferably takes place for approximately two respiratory cycles of the animal for each nostril. […]

[1] = saturated solution of xylitol (maximum strength); format: physicochemical; conditions: saline or water based solution
Text: as §1

In the case of `OC[C@@H](O)[C@H](O)[C@@H](O)CO` [xylitol], the “adherence of bacteria to their environment” value (pathogenic bacteria) is listed as “less adherent”, the “effectiveness of xylitol in solution” value (shipping fever) is listed as “effective” and the “saturated solution, xylitol per 100 cubic centimeters of solution” value [1] is listed as ~64 grams per 100 cubic centimeter.
